Data reported in patent publication US20200061173A1, “IMMUNOGENIC COMPOSITION COMPRISING SURVIVIN PEPTIDES” (Vaxeal Research SAS, priority 2016, published 2020).

System: PBMC T cells
Assay: Spontaneous T-cell responses against SVX-1 peptides in blood, IFN-γ ELISpot
Format: cell-based, human
Conditions: among the 6 positive patients
Experimental: Peripheral blood from 7 lung cancer patients was used to monitor the presence of SVX-1 peptides specific T cells. The cancer patients were recruited at the Hôpital Europeen Georges Pompidou (Paris, France). This study was conducted in accordance with French laws and after approval by the local ethics committee. Blood cells were also collected from 3 anonymous healthy donors at the Etablissement Français du Sang (EFS, Rungis, France) as buffy-coat preparations after informed consent and following EFS guidelines. The blood from the healthy donors served as negative controls.
PBMC were isolated by density centrifugation on Ficoll-Hyperpaque gradients (Sigma-Aldrich). PBMC were cultured for 6 days at 2×10^6 cells/ml in 2 ml per well with complete RPMI medium supplemented with 10% FCS. In each well, a pool of SVX-1 peptides was added at a concentration of 10 μg/ml. On day 2 after the beginning of the culture, IL-2 (Chiron) was added at 20 IU/ml in standard conditions. After 6 days of culture, ELISpot assays were performed using PHA-activated cells pulsed with the pool of SVX-1 peptides or the individual peptides (S1, S2 or S3) as antigen presenting cells (APCs). […]
Spots were counted using an automated stereomicro-scope (Zeiss). The number of specific T cells expressed as spot-forming cells/10^5 cells was calculated after subtracting negative control values (background). […]

Sequence: HRISTFKNWPFLEGCACT (alpha-isoform survivin S1 positions 17-34) [18 amino acid peptide consisting of wild type Survivin amino acids 17-34]
- Spontaneous T cell responses against individual peptides in lung cancer patients: detected
